Experiments:
[1] = system: isolated sensitized guinea pig trachea; experiment: OVA-induced tracheal contractions and baseline tension in vitro
Procedure: Male Hartley guinea pigs (500–600 g) were sensitized by intramuscular injections of 0.7 mL of 5% (w/v) OVA in saline on Days 1, 4 and 43, and in adjuvant on Days 25 and 39 into each thigh, according to a method described by Underwood et al. and modified by us. Three days after the last injection, sensitized guinea pigs were sacrificed by cervical dislocation, and their tracheas removed. Each trachea was cut into six segments. Each segment consisted of three cartilage rings. All segments were cut open opposite the trachealis. […] Tissues were suspended in normal Krebs solution under an initial tension of 1.5 g and allowed to equilibrate for at least 1 h with washing at 15-min intervals. After the tissues were precontracted with KCl (60 mM) and washed with normal Krebs solution, OVA (0.1–100 μg/mL) was cumulatively added, and contractions were allowed to reach a steady state at each concentration. […] Therefore, the log concentration-response curves of OVA were constructed in the absence and presence of S-petasin. The tension of the precontraction induced by KCl was set as 100%.

PDE4 = experiment: Inhibition of PDE4 activity and Lineweaver-Burk analysis; type: biochemical, guinea pig
Procedure: Activities of PDE1–5, partially separated from guinea pig lungs and hearts according to the method described by Ko et al., were measured with a two-step procedure according to the method of Thompson and Appleman, using cAMP with [^3H]-cAMP or cGMP with [^3H]-cGMP as substrates. The enzyme pμreparation (25 μL) was incubated for 30 min at 37°C in a total assay volume of […] containing 50 mM Tris-HCl (pH 7.4), 3 mM MgCl2, 1 mM dithiothreitol, 0.05% BSA, 1 μM cAMP with 0.2 μCi [^3H]-cAMP as a substrate alone or in the presence of 0.1 units calmodulin with 10 μM CaCl2 or 5 μM cGMP, and 1 μM cGMP with 0.2 μCi [^3H]-cGMP as another substrate alone or in the presence of 0.1 units calmodulin with 10 μM CaCl2. In tests of enzyme inhibition, the reaction mixture contained 10 μL of vehicle or inhibitors, at various concentrations of S-petasin or selective PDE1–5 inhibitors, such as vinpocetin [22], EHNA [23], milrinone, Ro 20-1724 [25] and zaprinast, as reference drugs. The reagents and homogenate were mixed on ice, and the reaction was initiated by transferring the mixture to a water bath at 37°C. Following a 30-min incubation, the reaction was stopped by transferring the reaction vessel to a bath of boiling water for 3 min. After cooling on ice, 20 μL of a 1 mg/mL solution of C. atrox snake venom was added to the reaction mixture, and the mixture was incubated at 37°C for 10 min. Unreacted [^3H]-cAMP or [^3H]-cGMP was removed by the addition of 500 μL of a 1-in-1 Tris-HCl (40 mM) buffer suspension of Dowex resin (1 × 8-200) with incubation on ice for 30 min. Each tube was then centrifuged for 2 min at 3700 g, and 150 μL of the supernatant was removed for liquid scintillation counting. Less than 10% of the tritiated cyclic nucleotide was hydrolyzed in this assay. The total protein in each fraction used was assayed according to the method described by Bradford. The PDE activities are shown as nmol/mg/min in the Lineweaver-Burk analysis.

[2] = system: OVA-sensitized and challenged BALB/c mice; experiment: Airway hyperresponsiveness in vivo (Penh, whole-body plethysmography); design: species or system mouse
Procedure: Ten female BABL/c mice in each group were sensitized by an intraperitoneal (i.p.) injection of 20 μg of OVA emulsified in 2.25 mg aluminum hydroxide gel in a total volume of 100 μL on days 0 and 14. The mice were challenged via the airway by 1% OVA in saline for 30 min on Days 28, 29 and 30 by ultrasonic nebulization. Six weeks after the last of three primary OVA challenges, the mice were exposed to 1% OVA for 30 min by nebulization as a secondary challenge. AHR was assessed on Day 74 (48 h after 1% OVA provocation) in each group. […] For comparison, sham-treated mice were sensitized but challenged with saline instead of 1% OVA (non-challenged). The vehicle, a mixture of alcohol : DMSO : 30% HPβCD : saline (0.5 : 0.5 : 1 : 8 , v/v), or S-petasin was injected at a volume of 0.01 mL/g of body weight. AHR was measured in unrestrained animals by barometric plethysmography using a whole-body plethysmograph (WBP) and analyzed using software of Life Science Suite P3 Analysis Modules (Gould, LDS Test and Measurement LLC, Valley View, OH, USA). The mice were placed into the main chamber of the WBP, and the baseline enhanced pause (P enh) value was determined. Then the mice were nebulized first with phosphate-buffered saline (PBS), and subsequently with increasing doses (6.25–50 mg/mL) of MCh for 3 min for each nebulization, followed by readings of breathing parameters for 3 min after each nebulization with determination of P enh values. Twenty-four hours after the P enh determination, these mice were anesthetized with pentobarbital (50 mg/kg, i.p.), and lavaged via a tracheal tube with PBS (1 × 1.0 mL, 37°C). After lavage, blood was collected from the jugular vein and allowed to sit so that it would coagulate. The collected bronchoalveolar lavage fluid (BALF) and coagulated blood were, respectively, centrifuged at 630 g for 7 min and at 3700 g for 10 min at 4°C, respectively. After centrifugation, the supernatants of BALF and serum were stored at −20°C until the determinations of cytokines, including interleukin (IL)-2, IL-4, IL-5, tumor necrosis factor (TNF)-α and interferon (IFN)-γ by flow cytometric methods using mouse Th1/Th2 cytokine CBA kits, of total immunoglobulin E (IgE), and of total IgG2a using enzyme-linked immunosorbent assay (ELISA) kits (Pharmingen, San Diego, CA, USA) according to the respective recommendations of the manufacturer. OVA-specific IgE was measured as described previously with some modifications. Wells were coated with 100 μL of OVA (20 μg/mL) instead of the capture antibody. Levels are expressed in arbitrary units, where one arbitrary unit equals the optical density of the sample divided by the optical density of unchallenged mouse serum or BALF (standard). The pellet from BALF was re-suspended in ACK lysing buffer (1.658 g NH4Cl, 0.2 g KHCO3 and 1.44 mg EDTA in 200 mL of water) to lyse the residual erythrocytes in each sample. The number of inflammatory cells was counted using a hemocytometer (Hausser Scientific, Horsham, PA, USA). Cytospun slides were stained and differentiated in a blinded fashion by counting at least 100 cells under light microscopy.

**Q.** Which results are given for C=C(C)[C@@H]1C[C@@]2(C)C(=CC1=O)CC[C@@H](OC(=O)/C=C\SC)[C@@H]2C [S-Petasin]?
**A.** OVA (100 μg/mL)-induced contractions ([1]; 30–100 μM, 15 min preincubation): did not significantly inhibit; Baseline tension ([1]; 30–300 μM): concentration-dependently and significantly relaxed; Ki (PDE4; Lineweaver-Burk analysis, cAMP substrate, read-out: Ki on PDE isozyme 4): 18.1 ± 1.7 µM; Mode of inhibition of PDE4 activity (PDE4; Lineweaver-Burk analysis, S-petasin 3–30 μM, Ro 20-1724 1–10 μM): competitively inhibited; IC50 (PDE4; mean ± SEM (n), read-out: IC50 on PDE isozyme 4 (taken as PDE4L value)): 17.5 µM; Penh value at the baseline ([2]; 10 μmol/kg s.c.): 3.19 ± 0.47; Penh value of PBS nebulization ([2]; 10 μmol/kg s.c.): 2.99 ± 0.22; Penh value at the baseline ([2]; 30 μmol/kg s.c.): 3.13 ± 0.32; Penh value of PBS nebulization ([2]; 30 μmol/kg s.c.): 3.02 ± 0.23; Enhancement of the Penh value induced by MCh ([2]; 10–30 μmol/kg s.c., MCh at 50 mg/mL): dose-dependently and significantly attenuated

Source: article PMC3094704, “S-Petasin, the Main Sesquiterpene of Petasites formosanus, Inhibits Phosphodiesterase Activity and Suppresses Ovalbumin-Induced Airway Hyperresponsiveness” (Evidence-based Complementary and Alternative Medicine : eCAM, 2011)
